Data reported in ChEMBL document CHEMBL5506048, “Modular Biomimetic Strategy Enables Discovery and SAR Exploration of Oxime Macrocycles as Influenza A Virus (H1N1) Inhibitors” (J Med Chem, 2024).
Active and inactive are the calls of the source. The rule behind the calls is not given here.

Key:
[1] = test system: Influenza A virus; assay: Antiviral activity against Influenza virus H1N1 A/Puerto Rico/8/34 (A/PR/8/34) infected in human Calu-3 cells assessed as viral RNA at CC50 concentration for human Calu-3 cells measured after 3 days by one-time real time PCR assay; assay type: functional, organism-based; details: time 3.0 day
[2] = test system: Calu-3; assay: Cytotoxicity against human Calu-3 cells assessed as cell viability measured after 3 days by CellTiter-Lumi Steady Plus Luminescent Cell Viability Assay Kit; assay type: functional; details: Calu-3, 72 h, time 3 day
[3] = test system: Influenza A virus; assay: Antiviral activity against Influenza virus H1N1 A/Puerto Rico/8/34 (A/PR/8/34) infected in human Calu-3 cells assessed as viral RNA measured after 3 days by one-time real time PCR assay; assay type: functional, organism-based
[4] = Selectivity index, ratio of CC50 for human Calu-3 cells to EC50 for antiviral activity against Influenza virus HINI A/Puerto Rico/8/34 (A/PR/8/34); assay type: toxicity; details: read-out: Selectivity Index
[5] = test system: Influenza B virus; assay: Antiviral activity against Influenza virus Flu B (B/Taiwan/2/62) infected in human Calu-3 cells assessed as viral RNA measured after 3 days by one-time real time PCR assay; assay type: functional, organism-based; details: B/Taiwan/2/62, Calu-3, 72 h
[6] = test system: Influenza A virus; assay: Antiviral activity against HIV pseudotyped H1N1 HA infected in human 293T cells assessed as inhibition of viral entry into cells by measuring intensity of chemiluminescence measured after 3 days by Bright-Glo luciferase assay; assay type: functional, organism-based; details: HEK293T, time 3.0 day
[7] = test system: Influenza A virus; assay: Antiviral activity against Influenza virus HIN1 (A/California/07/2009 pdm09) infected in human Calu-3 cells assessed as viral RNA measured after 3 days by one-time real time PCR assay; assay type: functional, organism-based; details: Calu-3, 72 h
[8] = test system: Influenza A virus; assay: Antiviral activity against HIV pseudotyped H5N1 HA infected in human 293T cells assessed as inhibition of viral entry into cells by measuring intensity of chemiluminescence measured after 3 days by Bright-Glo luciferase assay; assay type: functional, organism-based; details: HEK293T, time 3.0 day
[9] = test system: Ebolavirus; assay: Antiviral activity against HIV pseudotyped EBOV GP infected in human 293T cells assessed as inhibition of viral entry into cells by measuring intensity of chemiluminescence measured after 3 days by Bright-Glo luciferase assay; assay type: functional, organism-based; details: HEK293T, time 3.0 day
[10] = test system: Influenza A virus; assay: Antiviral activity against Influenza virus H3N2 (A/Hong Kong/8/68) infected in human Calu-3 cells assessed as viral RNA measured after 3 days by one-time real time PCR assay; assay type: functional, organism-based; details: Calu-3, 72 h

SMILES	Activity [1]	CC50 [2] [µM]	EC50 ([3]; Calu-3, 72 h) [µM]	EC90 ([3]; Calu-3, 72 h, time 3 day) [µM]	selectivity ratio [4]	also measured
C=C1Cc2cc(C(F)(F)F)ccc2C(=O)NCC(C)(C)C(=O)CCCCOC1=O	inactive	> 100				
C=C1Cc2cc(F)ccc2C(=O)NCC(C)(C)/C(=N/OC)CCCOC1=O		> 100	1.65	1.98	> 60	
C=C1Cc2cc(C(F)(F)F)ccc2C(=O)NCC(C)(C)/C(=N/OC)CCC(CO)OC1=O (stereo unspecified)		> 100	20.2	> 100	> 4	
C=C1Cc2cc(C(F)(F)F)ccc2C(=O)NCC(C)(C)/C(=N/OC)CCC(CNCCO)OC1=O (stereo unspecified)	inactive	> 100				
CO/N=C1\CCCCOC(=O)/C(=C/c2ccc(N3CCOCC3)cc2)Cc2cc(C(F)(F)F)ccc2C(=O)NCC1(C)C	inactive	> 100				
C=C1Cc2cc(C(F)(F)F)ccc2C(=O)NCC2(CC2)/C(=N/OC)CCCOC1=O		> 100	0.247	1.23	> 404	
C=C1Cc2ccc(C(F)(F)F)cc2C(=O)NCC(C)(C)/C(=N/OC)CCCOC1=O		73.6	0.264	1.05	278	
C=C1Cc2cc(C(F)(F)F)ccc2C(=O)NCC(C)(C)/C(=N/OC)CCCNC1=O		> 100	0.657	1.39	> 152	
C=C1Cc2cc(C(F)(F)F)ccc2C(=O)NCC(C)(C)/C(=N/OC)CCOC1=O	inactive	> 100				
C=C1Cc2cc(C(F)(F)F)ccc2C(=O)NCC(C)/C(=N/OC)CCCOC1=O (stereo unspecified)	inactive	> 100				
C=C1Cc2cc(C(F)(F)F)ccc2C(=O)NCC(C)(C)/C(=N/OC)CCCOC1=O		> 100	0.441	0.56	> 226	
C=C1Cc2cc(C(F)(F)F)ccc2C(=O)NCC(C)(C)/C(=N/OC)CCC(C(=O)O)OC1=O (stereo unspecified)	inactive	> 100				
C=C1Cc2cc(C(F)(F)F)ccc2C(=O)NCC(C)(C)/C(=N/OC(CC)CC)CCC(C)OC1=O (stereo unspecified)	inactive	31.9				
C=C1Cc2cc(C(F)(F)F)ccc2C(=O)NCC(C)(C)/C(=N/OC)CCC(CN2CCOCC2)OC1=O (stereo unspecified)	inactive	> 100				
C=C1Cc2cc(C(F)(F)F)ccc2C(=O)NCC(C)(C)/C(=N/OC)CCCCOC1=O		> 100	2.3	46.5	> 43	
C=C1Cc2ccccc2C(=O)NCC(C)(C)/C(=N/OC)CCCOC1=O		> 100	0.985	18.3	> 101	
C=C1Cc2cc(N3CCOCC3)ccc2C(=O)NCC(C)(C)/C(=N/OC)CCCOC1=O		> 100	17.9		> 8	EC90 ([3]; time 3.0 day): inactive
C=C1Cc2cc(C(F)(F)F)ccc2C(=O)NCC(C)(C)/C(=N/O)CCCCOC1=O		> 100	57.3		> 1.7	EC90 ([3]; time 3.0 day): inactive
C=C1Cc2cc(OC)ccc2C(=O)NCC(C)(C)/C(=N/OC)CCCOC1=O		> 100	1.05	3.55	> 95	

SMILES	Activity [1]	CC50 [2] [µM]	EC50 ([3]; Calu-3, 72 h) [µM]	EC90 ([3]; Calu-3, 72 h, time 3 day) [µM]	selectivity ratio [4]	also measured
C=C1Cc2cc(C(F)(F)F)ccc2C(=O)NCC(C)(C)/C(=N/OC)CCCCCCOC1=O	inactive	15.6				
CO/N=C1\CCCCOC(=O)C(CSCCC(=O)O)Cc2cc(C(F)(F)F)ccc2C(=O)NCC1(C)C (stereo unspecified)	inactive	> 100				
C=C1Cc2cc(C(F)(F)F)ccc2C(=O)NCC(C)(C)/C(=N/OCC23C[C@H]4C[C@@H](C2)C[C@@H](C3)C4)CCC(C)OC1=O (stereo partly specified)	inactive	47				
CO/N=C1\CCCOC(=O)C(C)Cc2cc(C(F)(F)F)ccc2C(=O)NCC1(C)C (stereo unspecified)		> 100	2.74	> 100	> 36	
C=C1Cc2cc(NC(C)=O)ccc2C(=O)NCC(C)(C)/C(=N/OC)CCCOC1=O		> 100	2.69	5.06	> 37	
C=C1Cc2cc(C(F)(F)F)ccc2C(=O)NCC(C)(C)/C(=N/OC)CCC(c2ccc(F)cc2)OC1=O (stereo unspecified)	inactive	27.3				
C=C1Cc2cc(C(F)(F)F)ccc2C(=O)NCC(C)(C)/C(=N/OC)CC[C@H](C)OC1=O		90.4	0.013	0.235	6950	EC50 [5]: > 50 µM; Activity [6]: Dose-Dependent Effect; EC50 [7]: 0.048 µM; Activity [8]: inactive; Activity [9]: inactive; EC50 [10]: > 50 µM
C=C1Cc2cc(C(F)(F)F)ccc2C(=O)NCC(C)(C)/C(=N/OC)CCC(C2CC2)OC1=O (stereo unspecified)	inactive	42.9				
CCC(CC)Oc1ccc(/C=C2\Cc3cc(C(F)(F)F)ccc3C(=O)NCC(C)(C)/C(=N/OC)CCCCOC2=O)cc1	inactive	> 100				
C=C1Cc2cc(C(F)(F)F)ccc2C(=O)NCC(C)(C)/C(=N/OC)CC[C@@H](C)OC1=O		26.5	1.47	> 100	18	
C=C1Cc2cc(C(F)(F)F)ccc2C(=O)NCC2(CCC2)/C(=N/OC)CC[C@H](C)OC1=O		67.3	0.22	0.68	305	
C=C1Cc2cc(C(F)(F)F)ccc2C(=O)NCC(C)(C)/C(=N/OCC(F)(F)F)CCCOC1=O		> 100	0.428	1.87	> 233	
C=C1Cc2cc(C(F)(F)F)ccc2C(=O)NCC(C)(C)/C(=N/OC)CCC(C)OC1=O (stereo unspecified)		> 100	0.096	0.823	> 1040	
C=C1Cc2cc(C(F)(F)F)ccc2C(=O)NCC(C)(C)/C(=N/OC)CCC(CC)OC1=O (stereo unspecified)	inactive	42.4				
CO/N=C1\CCCCOC(=O)/C(=C/c2ccc(F)cc2)Cc2cc(C(F)(F)F)ccc2C(=O)NCC1(C)C	inactive	> 100				
C=C1Cc2cc(C(F)(F)F)ccc2C(=O)NCC(C)(C)/C(=N/OC(C)C)CCC(C)OC1=O (stereo unspecified)	inactive	36.6				
C=C1Cc2cc(C(F)(F)F)ccc2C(=O)NCC(C)(C)/C(=N/OC)CCCCCOC1=O	inactive	40.7				
C=C(Cc1cc(C(F)(F)F)ccc1C(=O)NCC(C)(C)/C(CCCO)=N/OC)C(=O)O	inactive	> 100				
